Assay results reported in US10875895B2, “Antibacterial cell-penetrating peptides” (Purdue Research Foundation, priority 2018, dated 2020).
Values after ≈ are worked out from the molar mass of the structure shown. Where two headings read alike, the source gives them in different places.

Experiments:
L. monocytogenes 191112 [1] = test: microbe, parasite or virus in culture; conditions: Listeria monocytogenes
P. aeruginosa 31041 [2] = test: microbe, parasite or virus in culture; conditions: Pseudomonas aeruginosa
S. aureus NRS 382 [3] = test: microbe, parasite or virus in culture; conditions: Staphylococcus aureus, NRS382
E. cloacae 1134 [4] = test: microbe, parasite or virus in culture; conditions: Enterobacter cloacae
VRSA 10 [5] = test: microbe, parasite or virus in culture; conditions: Staphylococcus aureus
VRSA 5 [6] = test: microbe, parasite or virus in culture; conditions: Staphylococcus aureus
S. enteritidis [7] = test: microbe, parasite or virus in culture; conditions: Salmonella enterica
K. pneumoniae 1706 [8] = test: microbe, parasite or virus in culture; conditions: Klebsiella pneumoniae
K. pneumonia NR 41928 [9] = test: microbe, parasite or virus in culture; conditions: Klebsiella pneumoniae, NR41928
S. flexneri 1a = test: MIC, broth microdilution (CLSI); format: cell-based; conditions: enteric pathogens
Experimental: (§1) The minimum inhibitory concentration (MIC) of the peptides (in uM/ml) and control antibiotics (vancomycin and gentamicin) in μg/mL, were determined using the broth microdilution method according to the guidelines of the Clinical and Laboratory Standards Institute (CLSI) guidelines. See CLSI. 2007. Methods for dilution antimicrobial susceptibility tests for bacteria that grow aerobically; approved standard M7-A7. CLSI, Wayne, Pa.

S. aureus RN 4220 = test: MIC, broth microdilution (CLSI); format: cell-based
Experimental: as §1

S. aureus NRS 384 [10] = test: microbe, parasite or virus in culture; conditions: Staphylococcus aureus, NRS384
S. typhimurium LT2 [11] = test: microbe, parasite or virus in culture; conditions: Salmonella enterica
A. baumannii 1605 [12] = test: microbe, parasite or virus in culture; conditions: Acinetobacter baumannii
P. aeruginosa 48982 [13] = test: microbe, parasite or virus in culture; conditions: Pseudomonas aeruginosa
P. aeruginosa 31040 [14] = test: microbe, parasite or virus in culture; conditions: Pseudomonas aeruginosa
S. aureus ATCC 6538 [15] = test: microbe, parasite or virus in culture; conditions: Staphylococcus aureus, ATCC6538
P. aeruginosa 50573 [16] = test: microbe, parasite or virus in culture; conditions: Pseudomonas aeruginosa
A. baumannii 1747 [17] = test: microbe, parasite or virus in culture; conditions: Acinetobacter baumannii
E. coli 21922 [18] = test: microbe, parasite or virus in culture; conditions: Escherichia coli
E. faecium 700221 [19] = test: microbe, parasite or virus in culture; conditions: Enterococcus faecium
K. pneumonia NR 41920 [20] = test: microbe, parasite or virus in culture; conditions: Klebsiella pneumoniae, NR41920
S. epidermidis NRS 101 [21] = test: microbe, parasite or virus in culture; conditions: Staphylococcus epidermidis, NRS101
A baumannii 19606 [22] = test: microbe, parasite or virus in culture; conditions: Acinetobacter baumannii
S. aureus NRS 383 [23] = test: microbe, parasite or virus in culture; conditions: Staphylococcus aureus, NRS383
S. aureus NRS 382 [24] = conditions: S. aureus NRS 382
S. epidermidis NRS 101 [25] = conditions: S. epidermidis NRS 101
E. coli 21922 [26] = conditions: E. coli 21922; enteric pathogens
P. aeruginosa 31041 [27] = conditions: P. aeruginosa 31041
P. aeruginosa 31040 [28] = conditions: P. aeruginosa 31040
L. monocytogenes 191112 [29] = conditions: L. monocytogenes 191112; enteric pathogens
S. enteritidis [30] = conditions: S. enteritidis; enteric pathogens
S. typhimurium LT2 [31] = conditions: S. typhimurium LT2; enteric pathogens
S. aureus NRS 384 [32] = conditions: S. aureus NRS 384; ESKAPE pathogens
E. faecium 700221 [33] = conditions: E. faecium 700221; ESKAPE pathogens
P. aeruginosa 48982 [34] = conditions: P. aeruginosa 48982
VRSA 5 [35] = system: VRSA 5
K. pneumonia NR 41928 [36] = conditions: K. pneumonia NR 41928; ESKAPE pathogens
A. baumannii 1747 [37] = conditions: A. baumannii 1747
VRSA 10 [38] = system: VRSA 10
K. pneumoniae 1706 [39] = conditions: K. pneumoniae 1706; ESKAPE pathogens
S. aureus NRS 383 [40] = conditions: S. aureus NRS 383
A baumannii 19606 [41] = conditions: A baumannii 19606
A. baumannii 1605 [42] = conditions: A. baumannii 1605; ESKAPE pathogens
S. aureus ATCC 6538 [43] = conditions: S. aureus ATCC 6538
P. aeruginosa 50573 [44] = conditions: P. aeruginosa 50573; ESKAPE pathogens
K. pneumonia NR 41920 [45] = conditions: K. pneumonia NR 41920; ESKAPE pathogens
E. cloacae 1134 [46] = conditions: E. cloacae 1134; ESKAPE pathogens

Compound: CN[C@H](CC(C)C)C(=O)N[C@H]1C(=O)N[C@@H](CC(N)=O)C(=O)N[C@H]2C(=O)N[C@H]3C(=O)N[C@H](C(=O)N[C@H](C(=O)O)c4cc(O)cc(O)c4-c4cc3ccc4O)[C@H](O)c3ccc(c(Cl)c3)Oc3cc2cc(c3O[C@@H]2O[C@H](CO)[C@@H](O)[C@H](O)[C@H]2O[C@H]2C[C@](C)(N)[C@H](O)[C@H](C)O2)Oc2ccc(cc2Cl)[C@H]1O [Vancomycin, vancomycin]
- MIC (L. monocytogenes 191112 [1]): 1 µM (≈ 1.45 µg/mL)
- MIC (P. aeruginosa 31041 [2]): > 32 µM
- MIC (S. aureus NRS 382 [3]): 1 µM (≈ 1.45 µg/mL)
- MIC (E. cloacae 1134 [4]): > 32 µM
- MIC (VRSA 10 [5]): > 32 µM
- MIC (VRSA 5 [6]): 4 µM (≈ 5.8 µg/mL)
- MIC (S. enteritidis [7]): > 32 µM
- MIC (K. pneumoniae 1706 [8]): > 32 µM
- MIC (K. pneumonia NR 41928 [9]): > 32 µM
- MIC (S. flexneri 1a; Shigella flexneri): > 32 µM
- MIC (S. aureus RN 4220; Staphylococcus aureus, RN4220): 0.5 µM (≈ 0.725 µg/mL)
- MIC (S. aureus NRS 384 [10]): 0.5 µM (≈ 0.725 µg/mL)
- MIC (S. typhimurium LT2 [11]): > 32 µM
- MIC (A. baumannii 1605 [12]): 8 µM (≈ 11.6 µg/mL)
- MIC (P. aeruginosa 48982 [13]): > 32 µM
- MIC (P. aeruginosa 31040 [14]): > 32 µM
- MIC (S. aureus ATCC 6538 [15]): 0.5 µM (≈ 0.725 µg/mL)
- MIC (P. aeruginosa 50573 [16]): > 32 µM
- MIC (A. baumannii 1747 [17]): > 32 µM
- MIC (E. coli 21922 [18]): > 32 µM
- MIC (E. faecium 700221 [19]): > 32 µM
- MIC (K. pneumonia NR 41920 [20]): > 32 µM
- MIC (S. epidermidis NRS 101 [21]): 2 µM (≈ 2.9 µg/mL)
- MIC (A baumannii 19606 [22]): 32 µM (≈ 46.4 µg/mL)
- MIC (S. aureus NRS 383 [23]): 4 µM (≈ 5.8 µg/mL)

Compound: gentamicin
- MIC (S. aureus NRS 382 [24]): 0.5 µM
- MIC (S. epidermidis NRS 101 [25]): 32 µM
- MIC (E. coli 21922 [26]): 2 µM
- MIC (P. aeruginosa 31041 [27]): 32 µM
- MIC (P. aeruginosa 31040 [28]): 16 µM
- MIC (L. monocytogenes 191112 [29]): 0.5 µM
- MIC (S. enteritidis [30]): 0.25 µM
- MIC (S. typhimurium LT2 [31]): 0.5 µM
- MIC (S. aureus NRS 384 [32]): 0.5 µM
- MIC (E. faecium 700221 [33]): >32 µM
- MIC (S. flexneri 1a): 0.5 µM
- MIC (S. aureus RN 4220): 0.5 µM
- MIC (P. aeruginosa 48982 [34]): >32 µM
- MIC (VRSA 5 [35]): 0.5 µM
- MIC (K. pneumonia NR 41928 [36]): 1 µM
- MIC (A. baumannii 1747 [37]): 0.25 µM
- MIC (VRSA 10 [38]): 0.5 µM
- MIC (K. pneumoniae 1706 [39]): 2 µM
- MIC (S. aureus NRS 383 [40]): >32 µM
- MIC (A baumannii 19606 [41]): 16 µM
- MIC (A. baumannii 1605 [42]): >32 µM
- MIC (S. aureus ATCC 6538 [43]): 0.125 µM
- MIC (P. aeruginosa 50573 [44]): 0.25 µM
- MIC (K. pneumonia NR 41920 [45]): 1 µM
- MIC (E. cloacae 1134 [46]): 0.5 µM
